Activity calls are given as the source filed them. The rule behind the calls is not given here.
tested on: HT-29 viability, CellTiter-Glo luminescence; assay: cytotoxicity toward HT-29 cells – cell-based, CellTiter-Glo luminescence, IC50, dose response (AID 1117330)

SMILES | IC50
CC(=O)[O][Hg][c]1ccccc1 | 799 nM
OCCN1CCN(CC/C=C2/c3ccccc3Sc3ccc(C(F)(F)F)cc32)CC1 | 1810 nM
O=C(O)C1(C(=O)O)CCC1.[NH2-].[NH2-].[Pt+2] | > 20000 nM (inactive)
Cc1ccc([N+](=O)[O-])[c]2c1[O][Hg]2 | 1440 nM
O=C1[O][Bi][O]c2ccccc21 | > 20000 nM (inactive)
CCCCCCCCCCCCCC[N+](C)(C)C | 1320 nM
